The values that follow come from article PMC8234244, “Virtual Evolution of HVEM Segment for Checkpoint Inhibitor Discovery” (International Journal of Molecular Sciences, 2021).

Residues, ends and D or L forms follow the SMILES beside them.

The subject of test [1] is BTLA/HVEM binding (BTLA-Fc coated, HVEM-biotin). Kind of test: Competitive ELISA, peptides against Biotin-HVEM for BTLA. Conditions: 1 mg/mL peptide; for Inhibition in preliminary competitive ELISA screen: 12 h at room temperature, peptides with response value under 85% of the control were selected, absorbance 630 nm; for Inhibition of BTLA/HVEM binding, titration of peptide-BTLA with different concentrations of HVEM: competitive ELISA, dose dependent, HVEM-biotin titrated, qualitative comparison. An excerpt: Though computational methods provided certain guidelines for picking the mutations, they are not 100% accurate since simplified models were used, like ignoring the possible conformation changes caused by mutations. Thus, the wet-lab examination is necessary to confirm their inhibition effects. The library containing predicted peptides was synthesized by solid phase peptide synthesis (SPPS) method with Fmoc strategy. We used competitive ELISA for the screen to ensure the positive peptides selectively binds in situ on the BTLA/HVEM interface. Biotin-HVEM was used as the signal reporter. Peptides with strong binding of BTLA will compete with Biotin-HVEM and result in lower signal. A primary screen was carried out by using 1 mg/mL of each peptide and those with response value under 85% of the control were selected for further characterization (Figure 2a).
96-well EIA/RIA plates (High Binding, Corning Incorporated) were coated with 350 ng/well of recombinant BTLA-Fc protein in PBS (50 µL/well), incubating at 37 °C overnight until the solutions evaporate completely. Methanol was added for protein fixation and the wells were blocked with 5% BSA in PBS (200 µL/well). The peptides in DMSO were diluted into 1 mg/mL in PBS (50 µL/well) and incubated 12 h at room temperature. Wells were washed six times with PBST (phosphate buffer saline with 0.1% Tween-20, pH 7.4). Different concentrations of recombinant HVEM-biotin protein (50 µL/well) was added and incubated for 2 h at room temperature. Wells were washed six times with PBS. Horseradish peroxidase (HRP) labeled Streptavidin was finally added at a 1/5000 dilution in PBS and incubated for 2 h at room temperature. 3, 3′, 5, 5′,-tetramethylbenzidine (TMB, Beyotime) was used for color development. The absorbance was read at 630 nm using Microplate Reader. Statistical analysis of the results was performed using GraphPad Prism 7 software.
A general note: In an ELISA, binding on a coated surface is turned into a signal by an enzyme label.

A further test concerns the target T1, BTLA-Fc (Homo sapiens, UniProt Q7Z6A9).
T1 construct: Fc
T1 sequence (Q7Z6A9 31-157 limits assumed): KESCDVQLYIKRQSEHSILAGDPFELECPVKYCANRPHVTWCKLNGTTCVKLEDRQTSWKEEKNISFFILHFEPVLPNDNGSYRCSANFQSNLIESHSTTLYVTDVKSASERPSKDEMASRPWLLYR
Kind of test: Surface plasmon resonance (SPR), binding of peptides to BTLA. The note with it: for Binding to BTLA in words: qualitative statement in running text. How it is done:
The SPR assay was conducted using Biacore T100 system with Sensor Chip CM5 (Cytiva, Marlborough, MA, USA). BTLA-Fc was conjugated to the chips with EDC/NHS coupling in NaAc buffer. The assay was performed in PBS buffer with 2% DMSO. The buffer calibration was conducted by mixing different volume of buffers with 1.5% or 2.8% DMSO. Various concentrations of the peptides were injected and flow through the chip at 30 µL/min. The signals were recorded and analyzed with either static (for fast dissociation) or kinetic (for slow dissociation) model.
On the technique in general: SPR reads the build-up and loss of mass on a sensor chip optically.

Test [2] concerns the target T2, recombinant BTLA-Fc protein (B and T lymphocyte attenuator) (UniProt Q7Z6A9 31-137).
T2 construct: B and T lymphocyte attenuator (BTLA); source: recombinant
T2 sequence: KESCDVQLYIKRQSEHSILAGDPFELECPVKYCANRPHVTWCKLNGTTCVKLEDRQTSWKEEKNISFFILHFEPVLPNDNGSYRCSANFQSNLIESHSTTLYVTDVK
Kind of test: SPR; Biacore T100, CM5 chip; BTLA-Fc coupled by EDC/NHS; peptides injected at 30 µL/min in PBS with 2% DMSO; static (fast dissociation) or kinetic (slow dissociation) model. The note with it: both partners purified.

With “Ac-KKACGELTGTVCF-NH2 [DP3, double mutant E27K E38F of HVEM (26–38)]”, the “Inhibition in preliminary competitive ELISA screen” value in test [1] is “showed inhibition”. As a reminder, the Kd is the equilibrium constant for the complex coming apart. For `CC(=O)N[C@@H](Cc1ccc(O)cc1)C(=O)N[C@@H](CCCNC(=N)N)C(=O)N[C@H](C(=O)N[C@@H](CCCCN)C(=O)N[C@@H](CCC(=O)O)C(=O)N[C@@H](C)C(=O)N[C@@H](CS)C(=O)NCC(=O)N[C@@H](CCC(=O)O)C(=O)N[C@@H](CC(C)C)C(=O)N[C@H](C(=O)NCC(=O)N[C@H](C(=O)N[C@H](C(=O)N[C@@H](CS)C(=O)N[C@@H](CCC(=O)O)C(=O)N1CCC[C@H]1C(N)=O)C(C)C)[C@@H](C)O)[C@@H](C)O)C(C)C` [P0-E1] (Ac-YRVKEACGELTGTVCEP-NH2), at BTLA-Fc (value as stated in running text), binding was characterised by a dissociation constant (Kd) of 9000 µM. With “Ac-KPACGELTGTVCE-NH2 [SP3, single mutant E27P of HVEM (26–38)]”, the “Inhibition in preliminary competitive ELISA screen” value in test [1] is on record as “showed inhibition”. For `CC(=O)N[C@@H](CCC(=O)O)C(=O)N[C@@H](CO)C(=O)N[C@@H](CS)C(=O)N1CCC[C@H]1C(=O)N[C@@H](CCCCN)C(=O)N[C@@H](CS)C(=O)N[C@@H](CO)C(=O)N1CCC[C@H]1C(=O)NCC(=O)N[C@@H](Cc1ccc(O)cc1)C(=O)N[C@@H](CCCNC(=N)N)C(=O)N[C@H](C(=O)N[C@@H](CCCCN)C(=O)N1CCC[C@H]1C(=O)N[C@@H](C)C(=O)N[C@@H](CS)C(=O)NCC(=O)N[C@@H](CCC(=O)O)C(=O)N[C@@H](CC(C)C)C(=O)N[C@H](C(=O)NCC(=O)N[C@H](C(=O)N[C@H](C(=O)N[C@@H](CS)C(=O)N[C@@H](Cc1ccccc1)C(=O)N1CCC[C@H]1C(N)=O)C(C)C)[C@@H](C)O)[C@@H](C)O)C(C)C` [DP2-E2] (Ac-ESCPKCSPGYRVKPACGELTGTVCFP-NH2), in test [1], the “Inhibition of BTLA/HVEM binding, titration of peptide-BTLA with different concentrations of HVEM” value was “higher affinity than the native ones”.

For `CC(=O)N[C@@H](Cc1ccc(O)cc1)C(=O)N[C@@H](CCCNC(=N)N)C(=O)N[C@H](C(=O)N[C@@H](CCCCN)C(=O)N1CCC[C@H]1C(=O)N[C@@H](C)C(=O)N[C@@H](CS)C(=O)NCC(=O)N[C@@H](CCC(=O)O)C(=O)N[C@@H](CC(C)C)C(=O)N[C@H](C(=O)NCC(=O)N[C@H](C(=O)N[C@H](C(=O)N[C@@H](CS)C(=O)N[C@@H](Cc1ccccc1)C(=O)N1CCC[C@H]1C(N)=O)C(C)C)[C@@H](C)O)[C@@H](C)O)C(C)C` [DP2-E1] (Ac-YRVKPACGELTGTVCFP-NH2), the “Binding to BTLA in words” value at BTLA-Fc is reported as “binds slightly tighter than P0-E1, however weaker than DP2”. For the same molecule, in test [1], the “Inhibition of BTLA/HVEM binding, titration of peptide-BTLA with different concentrations of HVEM” value was “higher affinity than the native ones”.

Regarding `CC(=O)N[C@@H](CCCCN)C(=O)N1CCC[C@H]1C(=O)N[C@@H](C)C(=O)N[C@@H](CS)C(=O)NCC(=O)N[C@@H](CCC(=O)O)C(=O)N[C@@H](CC(C)C)C(=O)N[C@H](C(=O)NCC(=O)N[C@H](C(=O)N[C@H](C(=O)N[C@@H](CS)C(=O)N[C@@H](Cc1ccccc1)C(N)=O)C(C)C)[C@@H](C)O)[C@@H](C)O` [DP2] (Ac-KPACGELTGTVCF-NH2), in test [1], the “Inhibition in preliminary competitive ELISA screen” value was “showed inhibition” and the “Inhibition of BTLA/HVEM binding, titration of peptide-BTLA with different concentrations of HVEM” value is on record as “showed the best inhibitory effects”. In the case of `CC(=O)N[C@@H](CCC(=O)O)C(=O)N[C@@H](CO)C(=O)N[C@@H](CS)C(=O)N1CCC[C@H]1C(=O)N[C@@H](CCCCN)C(=O)N[C@@H](CS)C(=O)N[C@@H](CO)C(=O)N1CCC[C@H]1C(=O)NCC(=O)N[C@@H](Cc1ccc(O)cc1)C(=O)N[C@@H](CCCNC(=N)N)C(=O)N[C@H](C(=O)N[C@@H](CCCCN)C(=O)N[C@@H](CCC(=O)O)C(=O)N[C@@H](C)C(=O)N[C@@H](CS)C(=O)NCC(=O)N[C@@H](CCC(=O)O)C(=O)N[C@@H](CC(C)C)C(=O)N[C@H](C(=O)NCC(=O)N[C@H](C(=O)N[C@H](C(=O)N[C@@H](CS)C(=O)N[C@@H](CCC(=O)O)C(=O)N1CCC[C@H]1C(N)=O)C(C)C)[C@@H](C)O)[C@@H](C)O)C(C)C` [P0-E2, reference compound] (Ac-ESCPKCSPGYRVKEACGELTGTVCEP-NH2; N-terminus and C-terminus assumed), the “Inhibition of BTLA/HVEM binding, titration of peptide-BTLA with different concentrations of HVEM” value in test [1] is reported as “more potency than P0”. Consider “Ac-KEACGELTGTVCE-NH2 [P0, reference compound]”, for which the “Binding to BTLA in words” value at BTLA-Fc was “can barely bind to BTLA”. Besides, in test [1], the “Inhibition of BTLA/HVEM binding, titration of peptide-BTLA with different concentrations of HVEM” value is “demonstrated little inhibition”. With “Ac-KEACGDLTGTVCE-NH2 [SP6, single mutant E31D of HVEM (26–38)]”, in test [1], the “Inhibition in preliminary competitive ELISA screen” value is recorded as “showed inhibition”. As to “Ac-KEACGELPGTVCE-NH2 [SP7, single mutant T33P of HVEM (26–38)]”, the “Inhibition in preliminary competitive ELISA screen” value in test [1] is on record as “showed inhibition”. Take Ac-ESCPKCSPGYRVKEACGELTGTVCEP-NH2 (cysteine pairing not given here) [P0-E2]: the Kd in test [2] is 94.1 µM.

B1: DP2 E27P E38F (peptide)
peptide: Ac-KPACGELTGTVCF-NH2
modifications: cysteine pairing not given here
notes: HVEM residues 26-38 with E27P and E38F; source: synthetic peptide (SPPS, Fmoc; Jiangsu Shenlang Biotech)
Take B1: in test [2], the Kd was 1750 µM.

B2: DP2-E1 (peptide)
peptide: Ac-YRVKPACGELTGTVCFP-NH2
modifications: cysteine pairing not given here
notes: HVEM residues 23-39 with the DP2 mutations E27P and E38F; also called extended DP2 (17 aa); source: synthetic peptide (SPPS, Fmoc; Jiangsu Shenlang Biotech)
As to B2, in test [2], the Kd turned out to be 3040 µM. Take Ac-YRVKEACGELTGTVCEP-NH2 (cysteine pairing not given here) [P0-E1]: the Kd in test [2] amounted to 9930 µM.

B3: DP2-E2 (peptide)
peptide: Ac-ESCPKCSPGYRVKPACGELTGTVCFP-NH2
modifications: cysteine pairing not given here
notes: HVEM residues 14-39 with the DP2 mutations E27P and E38F; also called extended DP2 (26 aa); source: synthetic peptide (SPPS, Fmoc; Jiangsu Shenlang Biotech)
As to B3, the Kd in test [2] amounted to 0.00146 µM.
